Experiments:
[1] = tested on: K+V channel; assay: Receptor binding profile of VSN16R; design: species or system human; conditions: 10µM VSN16R
[2] = target: T1, 5-HT7 (Homo sapiens, UniProt P34969); assay: Receptor binding profile of VSN16R; conditions: 10µM VSN16R
T1 construct: purchased Cerep; Chantest; DiscoveRx; Multispan; MDS Pharma Services

[3] = target: T2, NE transporter (Homo sapiens, UniProt P23975); assay: Receptor binding profile of VSN16R; conditions: 10µM VSN16R
T2 construct: purchased Cerep; Chantest; DiscoveRx; Multispan; MDS Pharma Services

[4] = target: T3, TrK B (Homo sapiens, UniProt Q16620); assay: Receptor binding profile of VSN16R; conditions: 10µM VSN16R
T3 construct: purchased Cerep; Chantest; DiscoveRx; Multispan; MDS Pharma Services

[5] = target: CYP450 3A7 (Homo sapiens, UniProt P24462)
[6] = target: T4, CCR1 (Homo sapiens, UniProt P32246); assay: Receptor binding profile of VSN16R; conditions: 10µM VSN16R
T4 construct: purchased Cerep; Chantest; DiscoveRx; Multispan; MDS Pharma Services

[7] = target: T5, EDG4 (Homo sapiens, UniProt Q9HBW0); assay: Receptor binding profile of VSN16R; conditions: 10µM VSN16R
T5 construct: purchased Cerep; Chantest; DiscoveRx; Multispan; MDS Pharma Services

[8] = target: T6, CYP450 2D6 (Homo sapiens, UniProt P10635); assay: CYP450 inhibition of dextromethorphan substrate in liver microsomes; type: in vitro ADME; conditions: read-out: IC50 Inhibition of substrate binding, VSN16R
T6 construct: from tissue; host or cells: liver microsomes
Description: (§1) Inhibition of binding of either 3-cyano-7-ethoxycoumarin, dibenzylfluorescein or 7-benzyoxy-4-
(§2) (trifluoromethyl) coumarin in human enzyme transfected BTI NN-5B1-4 cells or Sf9 insect cells or
(§3) inhibition of dextromethorphan substrate to CYP450 2D6 in liver microsomes.

[9] = target: GPR119 (Homo sapiens, UniProt Q8TDV5); assay: Receptor binding profile of VSN16R; design: purchased Cerep; Chantest; DiscoveRx; Multispan; MDS Pharma Services; conditions: 10µM VSN16R
[10] = tested on: spastic ABH mice with EAE; assay: Spasticity: resistance to hindlimb flexion against a strain gauge
[11] = tested on: Salmonella typhimurium and Escherichia coli strains; assay: Standard Ames test (summary); type: cell-based
Method: Strain of Organism Treatment Dose Revertants per plate
First Mutation without Metabolic Stimulation
Second Mutation without Metabolic Stimulation
VSN16R was incubated at various concentrations with either TA1535, TA1537, TA98 and TA100 strains of Salmonella typhimurium, which carry mutations in genes involved in histidine synthesis, and WP2uvvA Escherichia coli. The bacteria are spread on agar plates with limiting histidine content and incubated for 48 h. The number of histidine gene negative to positive revertants was assessed in two experiments. The results represent the mean ± SD. n=3/group. This was performed by Charles

[12] = target: T7, 5-HT2A (Homo sapiens, UniProt P28223); assay: Receptor binding profile of VSN16R; conditions: 10µM VSN16R
T7 construct: purchased Cerep; Chantest; DiscoveRx; Multispan; MDS Pharma Services

[13] = target: T8, EDG8 (Homo sapiens, UniProt Q9H228); assay: Receptor binding profile of VSN16R; conditions: 10µM VSN16R
T8 construct: purchased Cerep; Chantest; DiscoveRx; Multispan; MDS Pharma Services

[14] = target: T9, GPR35 (Homo sapiens, UniProt Q9HC97); assay: Receptor binding profile of VSN16R; conditions: 10µM VSN16R
T9 construct: purchased Cerep; Chantest; DiscoveRx; Multispan; MDS Pharma Services

[15] = tested on: β2; assay: Receptor binding profile of VSN16R; design: species or system human; conditions: 10µM VSN16R
[16] = target: T10, NK2 (Homo sapiens, UniProt P21452); assay: Receptor binding profile of VSN16R; conditions: 10µM VSN16R
T10 construct: purchased Cerep; Chantest; DiscoveRx; Multispan; MDS Pharma Services

[17] = target: T11, 5-HT6 (Homo sapiens, UniProt P50406); assay: Receptor binding profile of VSN16R; conditions: 10µM VSN16R
T11 construct: purchased Cerep; Chantest; DiscoveRx; Multispan; MDS Pharma Services

[18] = target: T12, 5-HT5A (Homo sapiens, UniProt P47898); assay: Receptor binding profile of VSN16R; conditions: 10µM VSN16R
T12 construct: purchased Cerep; Chantest; DiscoveRx; Multispan; MDS Pharma Services

[19] = tested on: rabbits; assay: Reproductive toxicology in rabbits; type: in vivo, rabbit
Method: Twenty‐eight day toxicology in rats and dogs for Investigational New Drug filing was performed by Charles Rivers (UK). Reproductive toxicology in rabbits was performed by Charles Rivers (Canada). Pharmacokinetic and/or toxicological doses ranged from 5 to 1000 mg·kg^−1 p.o. in Sprague Dawley male and female rats (n = 6‐26 per group), 50–200 mg·kg^−1 p.o. in male and female Beagle dogs (n = 6 per group) and 100–750 mg·kg^−1 p.o. in female New Zealand white rabbits (n = 9 per group). Results are expressed as mean ± SD.

[20] = target: T13, monoglycerol lipase (Homo sapiens, UniProt Q99685); assay: Receptor binding profile of VSN16R; conditions: 10µM VSN16R
T13 construct: purchased Cerep; Chantest; DiscoveRx; Multispan; MDS Pharma Services

[21] = tested on: normal animals; assay: Muscle tone in normal animals (resistance to flexion); type: in vivo, mouse; conditions: 40 mg·kg^−1 p.o.
[22] = target: CYP450 2B6 (Homo sapiens, UniProt P20813)
Description: as §1, §2, §3

[23] = target: T14, μ (Homo sapiens, UniProt P35372); assay: Receptor binding profile of VSN16R; conditions: 10µM VSN16R
T14 construct: purchased Cerep; Chantest; DiscoveRx; Multispan; MDS Pharma Services
T14 sequence (P35372 whole entry): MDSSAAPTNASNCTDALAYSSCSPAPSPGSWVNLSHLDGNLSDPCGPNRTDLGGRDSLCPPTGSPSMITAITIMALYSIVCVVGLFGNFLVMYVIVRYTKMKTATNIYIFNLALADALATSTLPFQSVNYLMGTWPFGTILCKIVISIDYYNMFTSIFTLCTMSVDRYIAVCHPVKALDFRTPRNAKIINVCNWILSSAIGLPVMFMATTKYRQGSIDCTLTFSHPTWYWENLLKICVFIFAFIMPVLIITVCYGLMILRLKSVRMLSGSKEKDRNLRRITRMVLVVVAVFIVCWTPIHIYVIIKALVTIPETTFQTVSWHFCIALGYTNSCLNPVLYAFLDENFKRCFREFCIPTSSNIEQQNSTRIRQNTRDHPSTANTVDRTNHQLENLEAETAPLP

T11 sequence (P50406 whole entry): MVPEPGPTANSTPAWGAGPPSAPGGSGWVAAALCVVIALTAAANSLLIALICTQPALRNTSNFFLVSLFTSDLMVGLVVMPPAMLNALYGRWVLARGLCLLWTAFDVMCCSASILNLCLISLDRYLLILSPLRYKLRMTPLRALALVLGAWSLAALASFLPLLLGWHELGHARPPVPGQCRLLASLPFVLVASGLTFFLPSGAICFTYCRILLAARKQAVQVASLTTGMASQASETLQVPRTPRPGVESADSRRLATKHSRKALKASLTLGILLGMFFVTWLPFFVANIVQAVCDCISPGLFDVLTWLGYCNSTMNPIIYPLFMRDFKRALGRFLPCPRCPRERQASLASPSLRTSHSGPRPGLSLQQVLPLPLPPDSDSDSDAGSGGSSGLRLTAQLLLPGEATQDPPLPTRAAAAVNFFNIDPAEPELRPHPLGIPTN
T12 sequence (P47898 whole entry): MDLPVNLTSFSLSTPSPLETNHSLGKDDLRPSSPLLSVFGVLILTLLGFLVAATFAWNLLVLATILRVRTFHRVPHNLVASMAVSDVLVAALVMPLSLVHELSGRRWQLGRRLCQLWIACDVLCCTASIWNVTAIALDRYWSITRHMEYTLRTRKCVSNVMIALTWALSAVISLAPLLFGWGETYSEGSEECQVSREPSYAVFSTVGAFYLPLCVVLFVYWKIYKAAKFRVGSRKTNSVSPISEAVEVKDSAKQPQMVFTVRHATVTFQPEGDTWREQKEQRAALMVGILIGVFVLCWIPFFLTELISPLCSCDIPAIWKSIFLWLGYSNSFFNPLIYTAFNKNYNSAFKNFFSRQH
T7 sequence (P28223 whole entry): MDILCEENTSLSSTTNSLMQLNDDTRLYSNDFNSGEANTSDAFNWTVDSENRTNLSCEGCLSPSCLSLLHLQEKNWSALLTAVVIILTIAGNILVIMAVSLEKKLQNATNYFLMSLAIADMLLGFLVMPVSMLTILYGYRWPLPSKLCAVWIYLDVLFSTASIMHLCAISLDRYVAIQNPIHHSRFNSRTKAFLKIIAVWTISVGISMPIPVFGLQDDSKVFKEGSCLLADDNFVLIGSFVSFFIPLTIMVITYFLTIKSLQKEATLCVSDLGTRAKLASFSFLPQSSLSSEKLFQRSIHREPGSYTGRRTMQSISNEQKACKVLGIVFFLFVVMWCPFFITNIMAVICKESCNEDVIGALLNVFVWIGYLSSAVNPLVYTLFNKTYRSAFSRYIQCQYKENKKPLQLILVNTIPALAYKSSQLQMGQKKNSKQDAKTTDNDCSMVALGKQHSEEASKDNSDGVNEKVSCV
T9 sequence (Q9HC97 whole entry): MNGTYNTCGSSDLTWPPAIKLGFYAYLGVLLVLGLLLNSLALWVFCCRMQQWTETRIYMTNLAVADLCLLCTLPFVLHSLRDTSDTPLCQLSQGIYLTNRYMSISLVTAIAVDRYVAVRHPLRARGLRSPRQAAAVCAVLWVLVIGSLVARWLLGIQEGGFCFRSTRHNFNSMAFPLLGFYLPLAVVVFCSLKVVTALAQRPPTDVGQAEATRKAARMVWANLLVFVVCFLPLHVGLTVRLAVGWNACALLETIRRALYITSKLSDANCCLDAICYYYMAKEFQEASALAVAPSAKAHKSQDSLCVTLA
CYP450 2B6, sequence (P20813 whole entry): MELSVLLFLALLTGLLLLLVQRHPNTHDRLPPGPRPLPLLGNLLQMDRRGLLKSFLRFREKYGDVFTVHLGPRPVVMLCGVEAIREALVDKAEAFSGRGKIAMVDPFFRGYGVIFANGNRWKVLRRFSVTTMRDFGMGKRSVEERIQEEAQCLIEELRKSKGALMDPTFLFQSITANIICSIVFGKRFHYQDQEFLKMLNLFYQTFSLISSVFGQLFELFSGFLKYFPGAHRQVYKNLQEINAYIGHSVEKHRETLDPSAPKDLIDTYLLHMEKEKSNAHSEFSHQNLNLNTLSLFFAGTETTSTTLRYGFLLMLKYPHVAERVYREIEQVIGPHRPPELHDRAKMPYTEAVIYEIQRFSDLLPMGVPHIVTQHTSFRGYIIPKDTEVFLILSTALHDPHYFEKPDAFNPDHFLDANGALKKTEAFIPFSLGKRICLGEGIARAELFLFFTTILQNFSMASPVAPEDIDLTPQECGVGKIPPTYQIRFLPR
T10 sequence (P21452 whole entry): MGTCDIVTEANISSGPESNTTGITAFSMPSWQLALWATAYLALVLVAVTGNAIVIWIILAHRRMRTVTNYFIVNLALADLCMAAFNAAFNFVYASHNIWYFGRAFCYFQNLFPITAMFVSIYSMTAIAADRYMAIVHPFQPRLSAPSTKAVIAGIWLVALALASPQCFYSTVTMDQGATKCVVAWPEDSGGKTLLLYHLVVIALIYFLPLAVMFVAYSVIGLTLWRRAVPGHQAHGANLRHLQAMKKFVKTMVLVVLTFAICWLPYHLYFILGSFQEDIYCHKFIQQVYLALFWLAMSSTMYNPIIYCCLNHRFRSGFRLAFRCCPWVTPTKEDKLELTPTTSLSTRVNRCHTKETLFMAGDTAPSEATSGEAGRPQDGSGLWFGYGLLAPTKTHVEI
T13 sequence (Q99685 whole entry): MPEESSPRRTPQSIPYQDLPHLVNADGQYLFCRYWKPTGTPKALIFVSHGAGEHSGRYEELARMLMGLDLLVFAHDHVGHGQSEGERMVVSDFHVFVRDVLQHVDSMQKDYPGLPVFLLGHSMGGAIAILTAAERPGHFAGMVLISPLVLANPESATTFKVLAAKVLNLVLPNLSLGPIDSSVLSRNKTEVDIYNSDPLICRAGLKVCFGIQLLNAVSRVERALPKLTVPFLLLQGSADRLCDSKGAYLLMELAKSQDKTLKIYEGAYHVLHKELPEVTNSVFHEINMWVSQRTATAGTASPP
T4 sequence (P32246 whole entry): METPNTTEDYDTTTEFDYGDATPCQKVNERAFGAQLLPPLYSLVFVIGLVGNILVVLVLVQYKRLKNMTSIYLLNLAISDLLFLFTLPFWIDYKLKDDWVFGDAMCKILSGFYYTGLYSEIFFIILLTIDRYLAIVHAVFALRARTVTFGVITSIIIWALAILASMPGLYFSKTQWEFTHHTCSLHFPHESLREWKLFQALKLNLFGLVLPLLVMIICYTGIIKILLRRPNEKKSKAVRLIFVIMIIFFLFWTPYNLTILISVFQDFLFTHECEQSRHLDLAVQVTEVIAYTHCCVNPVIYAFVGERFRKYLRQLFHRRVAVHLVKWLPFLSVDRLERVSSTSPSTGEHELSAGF
GPR119, sequence (Q8TDV5 whole entry): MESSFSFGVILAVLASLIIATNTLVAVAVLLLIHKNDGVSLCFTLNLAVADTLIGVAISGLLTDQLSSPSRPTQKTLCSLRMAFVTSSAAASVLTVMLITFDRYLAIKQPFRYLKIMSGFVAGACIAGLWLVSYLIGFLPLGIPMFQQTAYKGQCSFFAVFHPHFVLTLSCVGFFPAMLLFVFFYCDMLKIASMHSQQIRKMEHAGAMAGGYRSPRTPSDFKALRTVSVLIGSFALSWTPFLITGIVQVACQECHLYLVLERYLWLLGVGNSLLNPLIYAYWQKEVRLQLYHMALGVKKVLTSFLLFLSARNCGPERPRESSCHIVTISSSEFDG
T8 sequence (Q9H228 whole entry): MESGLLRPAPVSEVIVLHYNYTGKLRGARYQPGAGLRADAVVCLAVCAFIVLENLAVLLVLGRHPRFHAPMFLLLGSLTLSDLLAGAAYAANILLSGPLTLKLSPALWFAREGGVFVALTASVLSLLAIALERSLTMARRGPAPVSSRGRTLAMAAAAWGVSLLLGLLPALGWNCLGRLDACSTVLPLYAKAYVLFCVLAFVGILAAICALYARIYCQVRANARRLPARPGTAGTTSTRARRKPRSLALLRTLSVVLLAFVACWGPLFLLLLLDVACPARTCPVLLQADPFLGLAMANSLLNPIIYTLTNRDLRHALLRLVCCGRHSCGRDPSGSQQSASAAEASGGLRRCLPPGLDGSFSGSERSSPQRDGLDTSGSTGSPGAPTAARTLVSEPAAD
T1 sequence (P34969 whole entry): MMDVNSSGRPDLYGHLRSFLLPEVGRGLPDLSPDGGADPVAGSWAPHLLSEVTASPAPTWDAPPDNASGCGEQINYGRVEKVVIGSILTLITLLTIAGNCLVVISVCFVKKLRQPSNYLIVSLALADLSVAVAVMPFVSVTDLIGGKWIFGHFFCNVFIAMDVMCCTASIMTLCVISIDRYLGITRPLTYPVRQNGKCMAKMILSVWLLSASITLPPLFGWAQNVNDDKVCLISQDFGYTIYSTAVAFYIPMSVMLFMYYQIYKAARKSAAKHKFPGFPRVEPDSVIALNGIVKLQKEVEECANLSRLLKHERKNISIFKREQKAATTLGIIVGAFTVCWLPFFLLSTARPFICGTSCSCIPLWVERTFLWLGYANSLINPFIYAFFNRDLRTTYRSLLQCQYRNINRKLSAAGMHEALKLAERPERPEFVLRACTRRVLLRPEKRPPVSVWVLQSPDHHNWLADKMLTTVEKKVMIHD

SMILES: C[C@H](CO)NC(=O)c1cccc(/C=C\CCCC(=O)N(C)C)c1 [VSN16R]
- Activity [1]: Negligible Activity
- Activity [2]: Negligible Activity
- Activity [3]: Negligible Activity
- Activity [4]: Negligible Activity
- IC50 [5]: > 10 µM
- Activity [6]: Negligible Activity
- Activity [7]: Negligible Activity
- IC50 [8]: > 30 µM
- Activity [9]: Negligible Activity
- Inhibition of spasticity ([10]; 0.5 mg·kg^−1 p.o.): failed to produce rapid muscular relaxation and inhibition of spasticity
- Inhibition of spasticity ([10]; 1 mg·kg^−1 p.o.): significant therapeutic activity was evident within 10 min
- Inhibition of spasticity ([10]; 5 mg·kg^−1 i.v.): slightly more active than VSN16S
- Inhibition of spasticity ([10]; 5 mg·kg^−1 p.o.): significant therapeutic activity was evident within 10 min
- Mean group score, resistance to flexion (±SD), one mean per animal ([10]; 5 mg·kg^−1 p.o., 30 min): 0.224 ± 0.067 N
- Mean group score, resistance to flexion (±SD), one mean per animal ([10]; 5 mg·kg^−1 p.o., 60 min): 0.214 ± 0.071 N
- Therapeutic effect after repeated daily administration ([10]; 40 mg·kg^−1 p.o. for 7 days): therapeutic effect was sustained
- Drop of resistance to flexion from baseline ([10]; 40 mg·kg^−1 p.o., visibly spastic animals): 17.8 ± 5.3%
- Resistance to flexion force ([10]; 2 weeks after cessation of weekly treatment, mean ± SEM): 0.157 ± 0.045 N
- Duration of inhibition of spasticity ([10]; single dose of 40 mg·kg^−1 p.o.): over 6 h
- Mutagenesis in a standard Ames test [11]: no evidence of mutagenesis
- Activity [12]: Negligible Activity
- Activity [13]: Negligible Activity
- Activity [14]: Negligible Activity
- Activity [15]: Negligible Activity
- Activity [16]: Negligible Activity
- Activity [17]: Negligible Activity
- Activity [18]: Negligible Activity
- Reproductive toxicology safe level [19]: > 500 mg·kg^−1
- Activity [20]: Negligible Activity
- Change (increase) of muscle tone from baseline [21]: 9.1 ± 6.3%
- IC50 [22]: > 10 µM
- Activity [23]: Negligible Activity

Source: paper PMC5522996, “Big conductance calcium‐activated potassium channel openers control spasticity without sedation” (British Journal of Pharmacology, 2017)
